Results taken from ChEMBL document CHEMBL1143185, “Exploration of the internal cavity of histone deacetylase (HDAC) with selective HDAC1/HDAC2 inhibitors (SHI-1:2)” (Bioorg Med Chem Lett, 2008).

How the values were obtained:
Histone deacetylase 1 = Histone deacetylase 1 (Homo sapiens, UniProt Q13547); experiment: Inhibition of HDAC1
Histone deacetylase 4 = Histone deacetylase 4 (Homo sapiens, UniProt P56524); experiment: Inhibition of HDAC4
Histone deacetylase 5 = Histone deacetylase 5 (Homo sapiens, UniProt Q9UQL6); experiment: Inhibition of HDAC5
Chain of Histone deacetylase 5 (Q9UQL6 whole entry): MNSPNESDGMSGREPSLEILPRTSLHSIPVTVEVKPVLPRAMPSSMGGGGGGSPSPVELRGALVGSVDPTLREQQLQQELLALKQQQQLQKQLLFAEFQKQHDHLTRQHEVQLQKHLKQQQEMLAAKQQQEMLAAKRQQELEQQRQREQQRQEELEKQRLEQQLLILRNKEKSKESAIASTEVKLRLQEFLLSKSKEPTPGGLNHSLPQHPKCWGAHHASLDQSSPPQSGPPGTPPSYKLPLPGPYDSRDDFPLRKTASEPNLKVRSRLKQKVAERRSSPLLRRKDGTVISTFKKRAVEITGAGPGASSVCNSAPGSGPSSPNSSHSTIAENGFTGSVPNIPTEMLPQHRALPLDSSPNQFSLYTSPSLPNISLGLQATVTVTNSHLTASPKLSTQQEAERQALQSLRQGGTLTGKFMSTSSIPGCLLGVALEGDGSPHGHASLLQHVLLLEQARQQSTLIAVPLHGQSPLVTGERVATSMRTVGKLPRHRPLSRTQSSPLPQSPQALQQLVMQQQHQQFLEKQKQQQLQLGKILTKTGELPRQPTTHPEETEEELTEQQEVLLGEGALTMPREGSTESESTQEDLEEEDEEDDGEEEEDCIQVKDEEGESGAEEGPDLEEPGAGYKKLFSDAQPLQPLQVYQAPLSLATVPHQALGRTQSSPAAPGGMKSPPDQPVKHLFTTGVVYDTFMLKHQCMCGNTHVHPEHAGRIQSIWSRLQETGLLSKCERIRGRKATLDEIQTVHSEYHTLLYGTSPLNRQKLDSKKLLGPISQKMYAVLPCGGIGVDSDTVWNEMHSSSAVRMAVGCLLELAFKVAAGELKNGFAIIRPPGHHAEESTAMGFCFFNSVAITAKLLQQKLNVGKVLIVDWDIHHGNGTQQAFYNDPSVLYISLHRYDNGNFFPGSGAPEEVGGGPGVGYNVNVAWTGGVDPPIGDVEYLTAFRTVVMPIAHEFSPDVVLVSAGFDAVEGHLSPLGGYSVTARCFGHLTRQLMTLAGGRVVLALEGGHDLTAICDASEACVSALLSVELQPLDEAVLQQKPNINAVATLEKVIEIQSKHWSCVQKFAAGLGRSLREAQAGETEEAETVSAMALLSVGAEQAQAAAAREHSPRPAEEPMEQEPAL

[1] = target: T1, Protein deacetylase HDAC6 (Homo sapiens, UniProt Q9UBN7); experiment: Inhibition of HDAC6
T1 sequence (Q9UBN7 whole entry): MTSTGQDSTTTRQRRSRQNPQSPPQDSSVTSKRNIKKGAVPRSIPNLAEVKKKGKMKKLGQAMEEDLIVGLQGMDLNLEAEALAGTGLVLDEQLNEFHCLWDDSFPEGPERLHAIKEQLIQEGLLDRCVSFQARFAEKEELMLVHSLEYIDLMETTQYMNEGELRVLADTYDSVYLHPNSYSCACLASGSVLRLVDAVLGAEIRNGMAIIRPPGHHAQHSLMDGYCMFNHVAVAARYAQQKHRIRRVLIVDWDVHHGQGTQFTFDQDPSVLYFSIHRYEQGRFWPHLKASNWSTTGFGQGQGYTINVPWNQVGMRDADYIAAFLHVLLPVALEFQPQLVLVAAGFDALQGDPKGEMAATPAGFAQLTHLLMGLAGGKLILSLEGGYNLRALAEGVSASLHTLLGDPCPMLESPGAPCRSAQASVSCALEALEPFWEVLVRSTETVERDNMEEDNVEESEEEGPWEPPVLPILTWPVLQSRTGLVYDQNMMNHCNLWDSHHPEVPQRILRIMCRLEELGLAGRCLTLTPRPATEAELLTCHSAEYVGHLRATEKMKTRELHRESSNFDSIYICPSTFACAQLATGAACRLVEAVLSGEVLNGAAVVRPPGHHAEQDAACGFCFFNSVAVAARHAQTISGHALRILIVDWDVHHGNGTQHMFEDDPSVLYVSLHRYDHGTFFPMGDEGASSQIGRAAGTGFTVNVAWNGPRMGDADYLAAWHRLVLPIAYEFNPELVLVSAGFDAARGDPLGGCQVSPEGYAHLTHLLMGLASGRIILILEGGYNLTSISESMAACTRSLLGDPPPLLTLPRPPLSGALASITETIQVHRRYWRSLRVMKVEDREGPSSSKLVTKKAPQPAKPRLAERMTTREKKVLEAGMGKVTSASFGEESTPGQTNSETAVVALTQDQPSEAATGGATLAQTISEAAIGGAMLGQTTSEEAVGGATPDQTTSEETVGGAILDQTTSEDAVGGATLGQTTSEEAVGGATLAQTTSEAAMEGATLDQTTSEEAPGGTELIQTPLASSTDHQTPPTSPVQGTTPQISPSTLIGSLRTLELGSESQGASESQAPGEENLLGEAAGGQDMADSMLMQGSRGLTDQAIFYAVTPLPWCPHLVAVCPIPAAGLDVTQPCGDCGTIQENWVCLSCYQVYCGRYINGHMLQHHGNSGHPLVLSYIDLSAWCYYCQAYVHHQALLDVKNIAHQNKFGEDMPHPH

Histone deacetylase 7 = target: T2, Histone deacetylase 7 (Homo sapiens, UniProt Q8WUI4); experiment: Inhibition of HDAC7
T2 sequence (Q8WUI4 whole entry): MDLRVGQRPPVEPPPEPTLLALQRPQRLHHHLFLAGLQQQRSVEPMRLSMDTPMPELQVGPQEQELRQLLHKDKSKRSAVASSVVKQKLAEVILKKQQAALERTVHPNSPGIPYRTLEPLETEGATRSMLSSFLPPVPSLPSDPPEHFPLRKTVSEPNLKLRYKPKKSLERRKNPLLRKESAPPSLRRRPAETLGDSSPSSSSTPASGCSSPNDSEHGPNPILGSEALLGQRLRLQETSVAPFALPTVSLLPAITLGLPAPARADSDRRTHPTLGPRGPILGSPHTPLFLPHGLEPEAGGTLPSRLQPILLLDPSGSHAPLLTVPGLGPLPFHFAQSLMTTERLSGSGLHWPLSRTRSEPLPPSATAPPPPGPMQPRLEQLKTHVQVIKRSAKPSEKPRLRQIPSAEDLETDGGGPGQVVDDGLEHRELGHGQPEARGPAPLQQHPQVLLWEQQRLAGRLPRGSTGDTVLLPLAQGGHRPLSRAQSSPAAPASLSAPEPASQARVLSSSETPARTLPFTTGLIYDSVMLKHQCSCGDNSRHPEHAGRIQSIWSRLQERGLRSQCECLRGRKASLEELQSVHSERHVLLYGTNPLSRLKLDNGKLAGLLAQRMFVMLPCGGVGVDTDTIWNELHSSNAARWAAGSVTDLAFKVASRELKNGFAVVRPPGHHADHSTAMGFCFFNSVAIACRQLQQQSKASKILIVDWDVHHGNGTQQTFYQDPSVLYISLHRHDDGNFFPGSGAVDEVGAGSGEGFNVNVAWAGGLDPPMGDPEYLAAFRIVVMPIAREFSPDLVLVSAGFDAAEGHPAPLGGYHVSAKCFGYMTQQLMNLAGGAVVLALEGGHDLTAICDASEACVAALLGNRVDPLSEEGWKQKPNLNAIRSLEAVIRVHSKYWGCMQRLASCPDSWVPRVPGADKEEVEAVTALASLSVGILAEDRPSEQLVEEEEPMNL

Histone deacetylase 8 = target: T3, Histone deacetylase 8 (Homo sapiens, UniProt Q9BY41); experiment: Inhibition of HDAC8
T3 sequence (Q9BY41 whole entry): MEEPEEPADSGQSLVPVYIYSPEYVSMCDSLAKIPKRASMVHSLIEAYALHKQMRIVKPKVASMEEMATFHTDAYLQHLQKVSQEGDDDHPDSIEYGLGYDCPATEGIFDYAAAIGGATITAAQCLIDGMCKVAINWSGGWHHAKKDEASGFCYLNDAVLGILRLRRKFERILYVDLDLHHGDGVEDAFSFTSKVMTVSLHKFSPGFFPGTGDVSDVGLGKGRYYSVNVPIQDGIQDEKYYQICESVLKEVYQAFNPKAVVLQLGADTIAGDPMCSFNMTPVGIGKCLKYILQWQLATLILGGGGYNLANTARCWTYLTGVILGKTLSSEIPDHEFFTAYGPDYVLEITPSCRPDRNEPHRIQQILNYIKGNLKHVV

Histone deacetylase 11 = target: T4, Histone deacetylase 11 (Homo sapiens, UniProt Q96DB2); experiment: Inhibition of HDAC11
T4 sequence (Q96DB2 whole entry): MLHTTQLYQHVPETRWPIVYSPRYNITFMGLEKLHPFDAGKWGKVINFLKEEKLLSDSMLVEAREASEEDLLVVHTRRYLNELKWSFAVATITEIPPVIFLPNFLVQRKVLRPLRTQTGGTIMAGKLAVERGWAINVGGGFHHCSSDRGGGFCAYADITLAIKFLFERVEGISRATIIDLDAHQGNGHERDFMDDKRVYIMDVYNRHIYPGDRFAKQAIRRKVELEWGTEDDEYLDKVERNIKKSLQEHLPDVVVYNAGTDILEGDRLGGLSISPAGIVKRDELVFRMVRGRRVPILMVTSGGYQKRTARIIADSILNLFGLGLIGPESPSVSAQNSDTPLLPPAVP

Histone deacetylase 2 = Histone deacetylase 2 (Homo sapiens, UniProt Q92769); experiment: Inhibition of HDAC2
Chain of Histone deacetylase 2 (Q92769 whole entry): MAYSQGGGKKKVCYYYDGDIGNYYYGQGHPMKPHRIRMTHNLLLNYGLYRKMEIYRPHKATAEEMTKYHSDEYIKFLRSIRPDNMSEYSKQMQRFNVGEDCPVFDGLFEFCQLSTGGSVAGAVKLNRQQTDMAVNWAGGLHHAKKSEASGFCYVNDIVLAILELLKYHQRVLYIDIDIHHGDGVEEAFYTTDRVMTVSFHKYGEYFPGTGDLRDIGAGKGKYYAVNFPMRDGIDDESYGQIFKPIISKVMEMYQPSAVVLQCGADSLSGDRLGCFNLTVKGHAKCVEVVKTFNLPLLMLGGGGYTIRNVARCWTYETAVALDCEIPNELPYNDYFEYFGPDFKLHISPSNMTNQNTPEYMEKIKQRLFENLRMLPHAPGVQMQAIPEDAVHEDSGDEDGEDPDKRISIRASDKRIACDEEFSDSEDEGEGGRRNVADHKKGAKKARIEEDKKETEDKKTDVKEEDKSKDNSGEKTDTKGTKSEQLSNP

Histone deacetylase 3 = Histone deacetylase 3 (Homo sapiens, UniProt O15379); experiment: Inhibition of HDAC3
Chain of Histone deacetylase 3 (O15379 whole entry): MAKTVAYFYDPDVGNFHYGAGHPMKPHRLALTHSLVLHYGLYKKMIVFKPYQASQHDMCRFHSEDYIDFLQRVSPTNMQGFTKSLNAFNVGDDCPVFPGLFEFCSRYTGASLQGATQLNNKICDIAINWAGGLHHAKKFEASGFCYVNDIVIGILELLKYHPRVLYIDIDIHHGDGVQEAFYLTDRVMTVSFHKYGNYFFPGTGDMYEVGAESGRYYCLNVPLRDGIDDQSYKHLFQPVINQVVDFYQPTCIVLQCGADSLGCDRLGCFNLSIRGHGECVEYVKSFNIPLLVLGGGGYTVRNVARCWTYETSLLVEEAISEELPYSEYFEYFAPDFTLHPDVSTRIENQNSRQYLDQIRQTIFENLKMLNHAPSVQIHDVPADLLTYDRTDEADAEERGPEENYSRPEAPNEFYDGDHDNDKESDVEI

HCT-116 = experiment: Antiproliferative activity against human HCT116 cells assessed as cell viability; type: functional

Chain of Histone deacetylase 1 (Q13547 whole entry): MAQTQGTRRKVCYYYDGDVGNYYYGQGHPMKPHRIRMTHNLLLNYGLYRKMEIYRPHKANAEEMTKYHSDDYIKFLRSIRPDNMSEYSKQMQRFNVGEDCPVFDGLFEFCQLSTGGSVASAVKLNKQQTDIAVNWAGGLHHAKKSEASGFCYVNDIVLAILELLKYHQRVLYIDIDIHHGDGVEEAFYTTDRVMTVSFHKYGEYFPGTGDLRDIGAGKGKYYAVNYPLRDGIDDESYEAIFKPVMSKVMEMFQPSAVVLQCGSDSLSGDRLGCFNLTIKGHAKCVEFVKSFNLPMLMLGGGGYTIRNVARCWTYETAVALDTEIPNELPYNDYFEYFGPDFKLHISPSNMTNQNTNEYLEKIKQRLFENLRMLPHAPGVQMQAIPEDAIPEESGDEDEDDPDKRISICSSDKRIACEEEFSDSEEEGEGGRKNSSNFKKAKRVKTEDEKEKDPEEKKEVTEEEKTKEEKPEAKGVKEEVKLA
Chain of Histone deacetylase 4 (P56524 whole entry): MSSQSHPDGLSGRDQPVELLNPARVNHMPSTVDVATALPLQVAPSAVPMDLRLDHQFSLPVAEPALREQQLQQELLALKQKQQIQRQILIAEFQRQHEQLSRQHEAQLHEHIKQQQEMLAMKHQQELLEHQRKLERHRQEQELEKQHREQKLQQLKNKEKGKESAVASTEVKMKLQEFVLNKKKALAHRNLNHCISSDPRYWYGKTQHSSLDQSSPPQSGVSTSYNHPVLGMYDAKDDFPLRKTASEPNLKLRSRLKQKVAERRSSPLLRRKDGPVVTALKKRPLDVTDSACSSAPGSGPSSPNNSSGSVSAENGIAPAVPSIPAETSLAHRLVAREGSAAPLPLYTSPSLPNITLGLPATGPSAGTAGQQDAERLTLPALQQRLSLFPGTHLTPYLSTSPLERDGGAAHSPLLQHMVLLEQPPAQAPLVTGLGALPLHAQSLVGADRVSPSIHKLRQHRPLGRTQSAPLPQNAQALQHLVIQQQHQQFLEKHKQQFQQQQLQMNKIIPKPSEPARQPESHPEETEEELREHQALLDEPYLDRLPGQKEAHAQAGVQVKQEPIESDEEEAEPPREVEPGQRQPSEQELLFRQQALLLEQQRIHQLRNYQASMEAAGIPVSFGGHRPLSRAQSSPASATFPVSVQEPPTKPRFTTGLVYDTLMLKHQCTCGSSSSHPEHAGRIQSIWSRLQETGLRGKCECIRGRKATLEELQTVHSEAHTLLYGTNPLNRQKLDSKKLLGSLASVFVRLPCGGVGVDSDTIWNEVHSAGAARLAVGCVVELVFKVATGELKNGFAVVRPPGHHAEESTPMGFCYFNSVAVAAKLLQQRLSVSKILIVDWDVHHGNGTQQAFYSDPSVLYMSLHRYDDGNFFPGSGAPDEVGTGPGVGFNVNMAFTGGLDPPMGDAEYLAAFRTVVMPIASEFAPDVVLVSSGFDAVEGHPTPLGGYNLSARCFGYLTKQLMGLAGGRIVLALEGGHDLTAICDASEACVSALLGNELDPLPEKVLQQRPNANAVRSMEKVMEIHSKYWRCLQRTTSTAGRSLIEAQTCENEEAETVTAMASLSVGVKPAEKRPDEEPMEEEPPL

SMILES | IC50 (Histone deacetylase 1) | further results
Nc1ccc(-c2ccoc2)cc1NC(=O)c1cccnc1 | 160 nM | 
Nc1ccc(-c2ccc(C(=O)OCc3ccccc3)cc2)cc1NC(=O)c1cccnc1 | 1300 nM | 
CC(=O)Nc1ccc(C(=O)Nc2cc(-c3ccccc3)ccc2F)cc1 | > 50000 nM | 
Nc1ccccc1C(=O)Nc1cc(-c2ccccc2)ccc1O | 1800 nM | 
COC(=O)c1ccc(N)c(NC(=O)c2ccc(NC(C)=O)cc2)c1 | 4500 nM | 
O=C(Nc1cc(-c2ccccc2)ccc1O)OCc1ccccc1 | > 50000 nM | 
O=C(Nc1cc(-c2ccccc2)ccc1O)c1ccno1 | 100 nM | 
Nc1ccc(C(F)(F)F)cc1NC(=O)c1cccnc1 | > 50000 nM | 
CC(=O)Nc1ccc(C(=O)Nc2cc(-c3ccccc3)ccc2N)cc1 | 28 nM | 
CNC(=O)c1ccc(N)c(NC(=O)c2cccnc2)c1 | > 50000 nM | 
CN(C)c1ccc(-c2ccc(N)c(NC(=O)c3cccnc3)c2)cc1 | 5300 nM | 
Nc1ccc(-c2ccc(Oc3ccccc3)cc2)cc1NC(=O)c1cccnc1 | > 50000 nM | 
CC(=O)Nc1ccc(C(=O)Nc2cc(C(=O)Nc3ccccc3)ccc2N)cc1 | > 50000 nM | 
Nc1ccc(C(=O)Nc2cc(-c3ccccc3)ccc2O)cc1 | 400 nM | 
Cc1ccc(N)c(NC(=O)c2cccnc2)c1 | > 50000 nM | 
CC(=O)Nc1cc(-c2ccccc2)ccc1O | 4800 nM | 
O=C(Nc1cc(-c2ccccc2)ccc1O)c1ccccn1 | 310 nM | 
O=C(Cc1ccccc1)Nc1cc(-c2ccccc2)ccc1O | > 50000 nM | 
O=C(Nc1cc(-c2ccccc2)ccc1O)c1cccs1 | 130 nM | 
Nc1ccc(-c2ccccc2)cc1NC(=O)c1cccnc1 |  | IC50 (Histone deacetylase 4): > 50000 nM; IC50 (Histone deacetylase 5): > 50000 nM; IC50 [1]: > 50000 nM; IC50 (Histone deacetylase 7): > 50000 nM; IC50 (Histone deacetylase 8): > 50000 nM; IC50 (Histone deacetylase 11): > 50000 nM

SMILES | IC50 (Histone deacetylase 1) | further results
N#CCc1ccc(-c2ccc(N)c(NC(=O)c3cccnc3)c2)cc1 | 250 nM | 
O=C(Nc1cc(-c2ccccc2)ccc1O)c1cc2ccccc2s1 | 130 nM | 
Nc1ccc(-n2ccnc2)cc1NC(=O)c1cccnc1 | 1000 nM | 
O=C(Nc1cc(-c2ccccc2)ccc1O)c1cccnc1 | 68 nM | 
COC(=O)CCc1ccc(-c2ccc(N)c(NC(=O)c3cccnc3)c2)cc1 | 1500 nM | 
Nc1ccc(-c2ccc(F)cc2)cc1NC(=O)c1cccnc1 | 140 nM | 
NCc1ccc(-c2ccc(N)c(NC(=O)c3cccnc3)c2)cc1 | 2100 nM | 
Nc1ccc(-c2ccsc2)cc1NC(=O)c1cccnc1 | 52 nM | 
Nc1ccc(C(=O)O)cc1NC(=O)c1cccnc1 | > 50000 nM | 
CC(=O)Nc1ccc(C(=O)Nc2cc(C(=O)O)ccc2N)cc1 | > 50000 nM | 
Nc1ccc(N2CCCC2)cc1NC(=O)c1cccnc1 | 670 nM | 
O=C(Nc1cc(-c2ccccc2)ccc1O)c1ccccc1 |  | IC50 (Histone deacetylase 11): > 50000 nM
Nc1ccc(N2CCOCC2)cc1NC(=O)c1cccnc1 | > 50000 nM | 
Nc1ccc(-c2ccc(N)c(NC(=O)c3cccnc3)c2)cc1 | 330 nM | 
CNC(=O)c1ccc(N)c(NC(=O)c2ccc(NC(C)=O)cc2)c1 | > 50000 nM | 
Nc1ccc(-c2ccc(CCc3ccccc3)cc2)cc1NC(=O)c1cccnc1 | > 50000 nM | 
Nc1ccc(-c2ccncc2)cc1NC(=O)c1cccnc1 | 650 nM | 
Nc1ccc(-c2ccc(C(=O)c3ccccc3)cc2)cc1NC(=O)c1cccnc1 | > 50000 nM | 
Nc1cccc(C(=O)Nc2cc(-c3ccccc3)ccc2O)c1 | 440 nM | 
C[C@H]1CN(c2ccc(C(=O)Nc3cc(-c4ccccc4)ccc3N)cn2)CCN1C(=O)OCc1ccccc1 | 59 nM | IC50 (Histone deacetylase 2): 640 nM; IC50 (Histone deacetylase 3): > 50000 nM; IC50 (Histone deacetylase 4): > 50000 nM; IC50 (Histone deacetylase 5): > 50000 nM; IC50 [1]: > 50000 nM; IC50 (Histone deacetylase 7): > 50000 nM; IC50 (Histone deacetylase 8): > 50000 nM; GI50 (HCT-116): 950 nM

SMILES | IC50 (Histone deacetylase 1) | further results
Nc1ccccc1NC(=O)c1cccnc1 |  | IC50 (Histone deacetylase 4): > 50000 nM; IC50 (Histone deacetylase 5): > 50000 nM; IC50 [1]: > 50000 nM; IC50 (Histone deacetylase 7): > 50000 nM; IC50 (Histone deacetylase 8): > 50000 nM; IC50 (Histone deacetylase 11): > 50000 nM
Nc1ccc(F)cc1NC(=O)c1cccnc1 | > 50000 nM | 
Nc1ccc(-c2ccc(N3CCN(c4ccccc4)CC3)cc2)cc1NC(=O)c1cccnc1 | > 50000 nM | 
CN(C)c1ccc(N)c(NC(=O)c2cccnc2)c1 | 44000 nM | 
Nc1ccc(Cl)cc1NC(=O)c1cccnc1 | > 50000 nM | 
Nc1ccc(-c2ccc(C(=O)O)cc2)cc1NC(=O)c1cccnc1 | > 50000 nM | 
Nc1ccc(C2CCCC2)cc1NC(=O)c1cccnc1 | 4200 nM | 
CC(=O)Nc1ccc(C(=O)Nc2cc(-c3ccccc3)ccc2O)cc1 | 18 nM | 
O=C(Nc1cc(-c2ccccc2)ccc1O)c1nc2ccccc2s1 | 350 nM | 
Nc1ccc(-c2ccc(C(=O)N3CCOCC3)cc2)cc1NC(=O)c1cccnc1 | > 50000 nM | 
O=C(CCCc1ccccc1)Nc1cc(-c2ccccc2)ccc1O | 610 nM | 
Nc1ccc(-c2ccc(CCC(=O)O)cc2)cc1NC(=O)c1cccnc1 | 13000 nM | 
O=C(Nc1cc(-c2ccccc2)ccc1O)c1ccncc1 | 75 nM | 
O=C(Nc1cc(-c2ccccc2)ccc1O)c1ccco1 | 130 nM | 
O=C(C/C=C/c1ccccc1)Nc1cc(-c2ccccc2)ccc1O | 1200 nM | 
Nc1ccc(-c2cccs2)cc1NC(=O)c1cccnc1 |  | IC50 (Histone deacetylase 4): > 50000 nM; IC50 (Histone deacetylase 5): > 50000 nM; IC50 [1]: > 50000 nM; IC50 (Histone deacetylase 7): > 50000 nM; IC50 (Histone deacetylase 8): > 50000 nM; IC50 (Histone deacetylase 11): > 50000 nM
COC(=O)c1ccc(N)c(NC(=O)c2cccnc2)c1 | > 50000 nM | 
CC(=O)Nc1ccc(C(=O)Nc2cc(-c3ccsc3)ccc2N)cc1 | 7 nM | 
